The molecules below were run against T1, human V1a receptor (Homo sapiens, UniProt P37288) (assay: human V1a receptor binding study (3H-Vasopressin SPA, HEK293 membranes)). Details: membranes of HEK293 cells transiently transfected with human V1a receptor, Ki by Cheng-Prusoff, read-out: pKi (hV1a) (converted).
T1 construct: expressed in transfected cells; host or cells: HEK293 cells, transiently transfected; cell membranes
Method: The human V1a receptor was cloned by RT-PCR from total human liver RNA. The coding sequence was subcloned in an expression vector after sequencing to confirm the identity of the amplified sequence. […] Cell membranes were prepared from HEK293 cells transiently transfected with the expression vector and grown in 20 liter fermenters with the following protocol.
50 g of cells are re-suspended in 30 ml freshly prepared ice cold Lysis buffer (50 mM HEPES, 1 mM EDTA, 10 mM MgCl2 adjusted to pH=7.4+complete cocktail of protease inhibitor (Roche Diagnostics)). Homogenized with Polytron for 1 min and sonicated on ice for 2× 2 minutes at 80% intensity (Vibracell sonicator). The preparation is centrifuged 20 min at 500 g at 4° C., the pellet is discarded and the supernatant centrifuged 1 hour at 43′000 g at 4° C. (19′000 rpm). The pellet is re-suspended in 12.5 ml Lysis buffer+12.5 ml Sucrose 20% and homogenized using a Polytron for 1-2 min. The protein concentration is determined by the Bradford method and aliquots are stored at −80° C. until use. For binding studies 60 mg Yttrium silicate SPA beads (Amersham) are mixed with an aliquot of membrane in binding buffer (50 mM Tris, 120 mM NaCl, 5 mM KCl, 2 mM CaCl2, 10 mM MgCl2) for 15 minutes with mixing. 50 μl of bead/membrane mixture is then added to each well of a 96 well plate, followed by 50 μl of 4 nM 3H-Vasopressin (American Radiolabeled Chemicals). For total binding measurement 100 μl of binding buffer are added to the respective wells, for non-specific binding 100 μl of […] cold vasopressin and for compound testing 100 μl of a serial dilution of each compound in 2% DMSO. The plate is incubated 1 h at room temperature, centrifuged […] at 1000 g and counted on a Packard Top-Count. Non-specific binding counts are subtracted from each well and data is normalized to the maximum specific binding set at 100%. To calculate an IC 50 the curve is fitted using a non-linear regression model (XLfit) and the Ki is calculated using the Cheng-Prussoff equation.

T1 sequence (P37288 whole entry): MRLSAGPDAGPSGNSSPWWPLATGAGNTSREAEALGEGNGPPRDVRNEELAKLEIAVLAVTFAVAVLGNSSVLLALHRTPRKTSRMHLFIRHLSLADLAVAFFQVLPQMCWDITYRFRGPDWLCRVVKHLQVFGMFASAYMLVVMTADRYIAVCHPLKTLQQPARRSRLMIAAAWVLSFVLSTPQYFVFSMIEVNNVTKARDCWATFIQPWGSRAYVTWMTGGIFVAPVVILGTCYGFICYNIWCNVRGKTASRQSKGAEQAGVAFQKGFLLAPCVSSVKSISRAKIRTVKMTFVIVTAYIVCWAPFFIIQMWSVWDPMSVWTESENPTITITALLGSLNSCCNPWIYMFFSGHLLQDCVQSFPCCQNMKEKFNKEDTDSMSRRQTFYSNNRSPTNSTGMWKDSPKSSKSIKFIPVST

| Structure (SMILES) | Ki [pM] |
| --- | --- |
| Clc1ccc(-n2c(Cc3ccno3)nnc2[C@H]2CC[C@H](Oc3ccccn3)CC2)cc1 [Example 3, trans-5-[[4-(4-Chlorophenyl)-5-(4-pyridin-2-yloxycyclohexyl)-1,2,4-triazol-3-yl]methyl]-1,2-oxazole] | 229 |
| Clc1ccc(-n2c(Cn3cnnn3)nnc2[C@H]2CC[C@H](Oc3ccccn3)CC2)cc1 [Example 10, trans-2-[4-[4-(4-Chlorophenyl)-5-(tetrazol-1-ylmethyl)-1,2,4-triazol-3-yl]cyclohexyl]oxypyridine] | 9120 |
| Clc1ccc(-n2c(Cc3ccon3)nnc2[C@H]2CC[C@H](Oc3ccccn3)CC2)cc1 [Example 2, trans-3-[[4-(4-Chlorophenyl)-5-(4-pyridin-2-yloxycyclohexyl)-1,2,4-triazol-3-yl]methyl]-1,2-oxazole] | 229 |
| Clc1ccc(-n2c(Cn3ccnc3)nnc2[C@H]2CC[C@H](Oc3ccccn3)CC2)cc1 [Example 8, trans-2-[4-[4-(4-Chlorophenyl)-5-(imidazol-1-ylmethyl)-1,2,4-triazol-3-yl]cyclohexyl]oxypyridine] | 3630 |
| Cc1cc(Cc2nnc([C@H]3CC[C@H](Oc4ccccn4)CC3)n2-c2ccc(Cl)cc2)no1 [Example 1, trans-3-[[4-(4-Chlorophenyl)-5-(4-pyridin-2-yloxycyclohexyl)-1,2,4-triazol-3-yl]methyl]-5-methyl-1,2-oxazole] | 170 |

Other lines, results leading:

| Ki [pM] | Structure (SMILES) |
| --- | --- |
| 151 | Clc1ccc(-n2c(Cn3nccn3)nnc2[C@H]2CC[C@H](Oc3ccccn3)CC2)cc1 [Example 5, trans-2-[4-[4-(4-Chlorophenyl)-5-(triazol-2-ylmethyl)-1,2,4-triazol-3-yl]cyclohexyl]oxypyridine] |
| 3630 | Clc1ccc(-n2c(Cn3ccnn3)nnc2[C@H]2CC[C@H](Oc3ccccn3)CC2)cc1 [Example 7, trans-2-[4-[4-(4-Chlorophenyl)-5-(triazol-1-ylmethyl)-1,2,4-triazol-3-yl]cyclohexyl]oxypyridine] |
| 871 | Clc1ccc(-n2c(Cn3nccn3)nnc2[C@H]2CC[C@@H](Oc3ccccn3)CC2)cc1 [Example 6, cis-2-[4-[4-(4-Chlorophenyl)-5-(triazol-2-ylmethyl)-1,2,4-triazol-3-yl]cyclohexyl]oxypyridine] |
| 7940 | Clc1ccc(-n2c(Cn3cncn3)nnc2[C@H]2CC[C@H](Oc3ccccn3)CC2)cc1 [Example 9, trans-2-[4-[4-(4-Chlorophenyl)-5-(1,2,4-triazol-1-ylmethyl)-1,2,4-triazol-3-yl]cyclohexyl]oxypyridine] |
| 347 | Clc1ccc(-n2c(Cn3cccn3)nnc2[C@H]2CC[C@H](Oc3ccccn3)CC2)cc1 [Example 4, trans-2-[4-[4-(4-Chlorophenyl)-5-(pyrazol-1-ylmethyl)-1,2,4-triazol-3-yl]cyclohexyl]oxypyridine] |

Reference: patent publication US20230150995A1, “HETEROARYL-METHYL SUBSTITUTED TRIAZOLES” (Hoffmann-La Roche Inc., priority 2020, published 2023)
